The values below come from patent US10428080B2, “TBK/IKK inhibitor compounds and uses thereof” (Merck Patent GmbH, priority 2015, dated 2019).

One test has as its target T1, TBK1 (Homo sapiens, UniProt Q9UHD2).
T1 sequence (Q9UHD2 1-729): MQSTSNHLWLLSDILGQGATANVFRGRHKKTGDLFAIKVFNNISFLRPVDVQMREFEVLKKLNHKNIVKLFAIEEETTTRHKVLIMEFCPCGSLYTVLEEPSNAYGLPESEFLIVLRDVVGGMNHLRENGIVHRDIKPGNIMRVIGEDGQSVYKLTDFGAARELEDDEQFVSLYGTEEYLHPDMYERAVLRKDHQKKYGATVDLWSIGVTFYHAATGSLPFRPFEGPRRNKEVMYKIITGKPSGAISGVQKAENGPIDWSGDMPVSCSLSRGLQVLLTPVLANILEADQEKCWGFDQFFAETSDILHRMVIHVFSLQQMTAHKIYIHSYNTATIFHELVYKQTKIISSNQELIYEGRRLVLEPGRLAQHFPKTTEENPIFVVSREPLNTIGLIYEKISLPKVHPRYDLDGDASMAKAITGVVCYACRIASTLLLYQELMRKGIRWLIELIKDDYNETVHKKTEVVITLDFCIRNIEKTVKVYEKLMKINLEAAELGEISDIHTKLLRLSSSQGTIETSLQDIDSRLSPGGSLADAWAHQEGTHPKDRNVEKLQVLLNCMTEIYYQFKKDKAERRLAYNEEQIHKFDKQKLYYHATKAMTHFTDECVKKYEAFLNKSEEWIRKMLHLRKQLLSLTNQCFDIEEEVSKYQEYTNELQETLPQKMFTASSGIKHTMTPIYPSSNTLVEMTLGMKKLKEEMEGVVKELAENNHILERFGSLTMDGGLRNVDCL
Nature of the test: TBK Biochemical Assay. To be noted: read-out: TBK1 IC50. As to the method: Example 482: TBK Biochemical Assay
Test compounds were transferred into Labcyte polypropylene 384 well plates (P055-25) and diluted to 3 mM using DMSO. 3 mM test compounds were dispensed using Labcyte ECHO dose response module into Greiner 784075 plates (columns 3-12 and 13-22, 10 point 1:4) so that high concentration was 30 uM final. 100 uM of a reference compound (1 uM final high concentration). Backfilling was performed if necessary so that all wells contain 1% DMSO final: […]
add 75 nl DMSO/well into columns 1, 2 and 24 using Labcyte Echo. add 75 nl 1.0 mM staurosporine/well into column 23 using Labcyte Echo ([…]) add 4.5 ul enzyme/well using multidrop dispenser add 3 ul substrate/well using multidrop dispenser incubate at 25° C. in Heidolph incubator for 90 min. add 7.5 ul 2× stop buffer using multidrop dispenser read on labchip ez reader II using TBK1.job
(§1) Raw data files were opened in the Caliper LabChip Reviewer program (Version 3.0.265.0 SP2) and peak assignments were adjusted to reflect “substrate first” with the software's post-run analysis options. A spline-fit baseline was applied using the software's analysis algorithm.

Another test has as its target T2, IKKε (Homo sapiens, UniProt Q14164).
T2 sequence (Q14164 1-716): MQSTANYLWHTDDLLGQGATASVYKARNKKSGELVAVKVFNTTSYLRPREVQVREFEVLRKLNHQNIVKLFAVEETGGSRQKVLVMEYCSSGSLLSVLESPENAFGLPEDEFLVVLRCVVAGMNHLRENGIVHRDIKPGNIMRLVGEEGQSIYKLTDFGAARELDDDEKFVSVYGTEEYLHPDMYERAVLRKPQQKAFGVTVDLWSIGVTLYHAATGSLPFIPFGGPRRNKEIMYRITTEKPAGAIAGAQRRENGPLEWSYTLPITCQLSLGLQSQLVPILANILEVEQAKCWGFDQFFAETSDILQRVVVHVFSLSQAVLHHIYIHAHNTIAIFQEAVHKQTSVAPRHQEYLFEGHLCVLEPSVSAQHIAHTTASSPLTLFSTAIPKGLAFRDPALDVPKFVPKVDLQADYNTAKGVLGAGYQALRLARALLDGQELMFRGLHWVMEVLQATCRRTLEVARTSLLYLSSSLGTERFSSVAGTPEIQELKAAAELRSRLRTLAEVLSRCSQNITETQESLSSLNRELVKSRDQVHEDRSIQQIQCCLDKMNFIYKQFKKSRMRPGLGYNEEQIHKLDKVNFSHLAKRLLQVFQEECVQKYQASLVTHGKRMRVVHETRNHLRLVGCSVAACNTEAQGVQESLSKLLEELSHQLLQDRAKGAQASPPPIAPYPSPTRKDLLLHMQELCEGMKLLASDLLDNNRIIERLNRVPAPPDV
Put plainly: IKKe Biochemical Assay. The note with it: read-out: IKKε IC50. As to the method: Test compounds were transferred into Labcyte polypropylene 384 well plates (P055-25) and diluted to 3 mM using DMSO. 3 mM test compounds were dispensed using Labcyte ECHO dose response module into (Greiner 784075 plates (columns 3-12 and 13-22, 10 point 1:4) so that high concentration was 30 uM final. 100 uM of a reference compound (1 uM final high concentration). Backfilling was performed if necessary so that all wells contain 1% DMSO final: […]
add 75 nl DMSO/well into columns 1, 2 and 24 using Labcyte Echo. add 75 nl 1.0 mM staurosporine/well into column 23 using Labcyte Echo (10 uM final) add 4.5 ul enzyme/well using multidrop dispenser add 3 ul substrate/well using multidrop dispenser incubate at 25° C. for 90 min. add 7.5 ul 2× stop buffer read on labchip ez reader II using IKKε. job
as §1

Counter-ions that a name gives are not always drawn. A value given as a limit tells only on which side of the number the result lay.

As to `COc1cc(C(=O)N2CC3CCC2CO3)ccc1-c1cc2nccc(-c3ccc(OC4CCOCC4)c(C#N)c3)c2o1` (centres unmarked) [Compound 4, 5-{2-[2-Methoxy-4-(2-oxa-5-aza-bicyclo[2.2.2]octane-5-carbonyl)-phenyl]-furo[3,2-b]pyridin-7-yl}-2-(tetrahydro-pyran-4-yloxy)-benzonitrile], the IC50 on TBK1 and on IKKε was under 100 nM throughout.

Regarding `COc1cc(C(=O)N2CC3CC(C2)O3)ccc1-c1cc2nccc(-c3ccc(OC4CCOCC4)c(C#N)c3)c2o1` [Compound 6, 5-{2-[2-Methoxy-4-(6-oxa-3-aza-bicyclo[3.1.1]heptane-3-carbonyl)-phenyl]-furo[3,2-b]pyridin-7-yl}-2-(tetrahydro-pyran-4-yloxy)-benzonitrile], the IC50 at TBK1 and on IKKε was under 100 nM each time.

As to `COc1cc(C(=O)N2CCC(OC)CC2)ccc1-c1cc2nccc(-c3ccc(OC4CCOCC4)c(C#N)c3)c2o1` [Compound 12, 5-(2-[2-Methoxy-4-(4-methoxy-piperidine-1-carbonyl)-phenyl]-furo[3,2-b]pyridin-7-yl}-2-(tetrahydro-pyran-4-yloxy)-benzonitrile], the IC50 at TBK1 and on IKKε was under 100 nM in each case.

As for `COc1cc(C(=O)N2CCC(C)(O)C2)ccc1-c1cc2nccc(-c3ccc(OC4CCOCC4)c(C#N)c3)c2o1` (centres unmarked) [Compound 19, 5-{2-[4-(3-Hydroxy-3-methyl-pyrrolidine-1-carbonyl)-2-methoxy-phenyl]-furo[3,2-b]pyridin-7-yl}-2-(tetrahydro-pyran-4-yloxy)-benzonitrile], the IC50 on TBK1 and on IKKε was under 100 nM in each case.

On to `COc1cc(C(=O)N2CCCC(O)C2)ccc1-c1cc2nccc(-c3ccc(OC4CCOCC4)c(C#N)c3)c2o1` (centres unmarked) [Compound 22, 5-{2-[4-(3-Hydroxy-piperidine-1-carbonyl)-2-methoxy-phenyl]-furo[3,2-b]pyridin-7-yl}-2-(tetrahydro-pyran-4-yloxy)-benzonitrile], for which the IC50 on TBK1 and at IKKε was under 100 nM in each case.

In the case of `COc1cc(C(=O)N2CC(S(C)(=O)=O)C2)ccc1-c1cc2nccc(-c3ccc(OC4CCOCC4)c(C#N)c3)c2o1` [Compound 26, 5-{2-[4-(3-Methanesulfonyl-azetidine-1-carbonyl)-2-methoxy-phenyl]-furo[3,2-b]pyridin-7-yl}-2-(tetrahydro-pyran-4-yloxy)-benzonitrile], the IC50 on TBK1 and at IKKε was under 100 nM throughout.

As for `COc1cc(C(=O)N(C)C2CCNCC2)ccc1-c1cc2nccc(-c3ccc(OC4CCOCC4)c(C#N)c3)c2o1` [Compound 41, 4-(7-[3-Cyano-4-(tetrahydro-pyran-4-yloxy)-phenyl]-furo[3,2-b]pyridin-2-yl)-3-methoxy-N-methyl-N-piperidin-4-yl-benzamide hydrochloride], the IC50 on TBK1 and on IKKε was under 100 nM in each case.

As to `COc1cc(C(=O)N2CCC2)ccc1-c1cc2nccc(-c3ccc(OC4CCOCC4)c(C#N)c3)c2o1` [Compound 44, 5-{2-[4-(Azetidine-1-carbonyl)-2-methoxy-phenyl]-furo[3,2-b]pyridin-7-yl}-2-(tetrahydro-pyran-4-yloxy)-benzonitrile], the IC50 on TBK1 and on IKKε was under 100 nM throughout.

For the compound `COc1cc(C(=O)N2CC(C)(O)C2)ccc1-c1cc2nccc(-c3ccc(OC4CCOCC4)c(C#N)c3)c2o1` [Compound 48, 5-{2-[4-(3-Hydroxy-3-methyl-azetidine-1-carbonyl)-2-methoxy-phenyl]-furo[3,2-b]pyridin-7-yl}-2-(tetrahydro-pyran-4-yloxy)-benzonitrile], the IC50 at TBK1 and at IKKε was under 100 nM throughout.

Turning to `COc1cc(C(=O)N(C)C2CCNC2)ccc1-c1cc2nccc(-c3ccc(OC4CCOCC4)c(C#N)c3)c2o1` (centres unmarked) [Compound 56, 4-{7-[3-Cyano-4-(tetrahydro-pyran-4-yloxy)-phenyl]-furo[3,2-b]pyridin-2-yl}-3-methoxy-N-methyl-N-pyrrolidin-3-yl-benzamide], the IC50 at TBK1 and on IKKε was under 100 nM throughout.

As usually defined, the IC50 is the concentration that inhibits the measured activity by half.
